Experimental data taken from US20120100990A1, “4 -AMINOPICOLINATES AND THEIR USE AS HERBICIDES” (SYNGENTA CROP PROTECTION LLC, priority 2009, published 2012).

How the values were obtained:
Type in all cases: in vivo
Setaria faberi (SETFA) [1] = assay: Pre-emergence biological efficacy, glasshouse pot test; settings: 312 h, 1,000 g/ha, evaluated after 13 days, 100=total damage, 0=no damage, read-out: Percentage damage caused to weed species, pre-emergence, SETFA
Summary of the method: (§1)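 Sow seeds in pots of standard soil; hold one day at 24/16 °C, 14 h light, 65% humidity. Spray compound at 1000 or 250 g/ha (acetone/water 50:50, 0.5% Tween 20). Grow on under the same conditions, watering twice daily, and score damage at day 13.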

[2] = tested on: Alopecurus myosuroides (ALOMY); assay: as above; settings: 312 h, 1,000 g/ha, evaluated after 13 days, 100=total damage, 0=no damage, read-out: Percentage damage caused to weed species, pre-emergence, ALOMY
Summary of the method: as §1

[3] = tested on: Echinochloa crus-galli (ECHCG); assay: as above; settings: 312 h, 1,000 g/ha, evaluated after 13 days, 100=total damage, 0=no damage, read-out: Percentage damage caused to weed species, pre-emergence, ECHCG
Summary of the method: as §1

[4] = tested on: Ipomea hederaceae (IPOHE); assay: as above; settings: Ipomoea hederacea, 312 h, 1,000 g/ha, evaluated after 13 days, 100=total damage, 0=no damage, read-out: Percentage damage caused to weed species, pre-emergence, IPOHE
Summary of the method: as §1

Solanum nigrum (SOLNI) [5] = assay: as above; settings: 312 h, 1,000 g/ha, evaluated after 13 days, 100=total damage, 0=no damage, read-out: Percentage damage caused to weed species, pre-emergence, SOLNI
Summary of the method: as §1

[6] = tested on: Amaranthus retroflexus (AMARE); assay: as above; settings: 312 h, 1,000 g/ha, evaluated after 13 days, 100=total damage, 0=no damage, read-out: Percentage damage caused to weed species, pre-emergence, AMARE
Summary of the method: as §1

Setaria faberi (SETFA) [7] = assay: Post-emergence biological efficacy, glasshouse pot test; settings: 312 h, 1,000 g/ha, evaluated after 13 days, 100=total damage, 0=no damage, read-out: Percentage damage caused to weed species, post-emergence, SETFA
Summary of the method: (§2)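 Damage, rated 0 (none) to 100 (total) at 13 days after treatment, followed post-emergence spraying at 250 or 1000 g/ha in acetone/water with 0.5% Tween 20. Plants had been raised 8 days beforehand under glasshouse conditions of 24/16 °C day/night, 14 h light and 65% humidity.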

[8] = tested on: Alopecurus myosuroides (ALOMY); assay: as above; settings: 312 h, 1,000 g/ha, evaluated after 13 days, 100=total damage, 0=no damage, read-out: Percentage damage caused to weed species, post-emergence, ALOMY
Summary of the method: as §2

[9] = tested on: Echinochloa crus-galli (ECHCG); assay: as above; settings: 312 h, 1,000 g/ha, evaluated after 13 days, 100=total damage, 0=no damage, read-out: Percentage damage caused to weed species, post-emergence, ECHCG
Summary of the method: as §2

[10] = tested on: Ipomea hederaceae (IPOHE); assay: as above; settings: Ipomoea hederacea, 312 h, 1,000 g/ha, evaluated after 13 days, 100=total damage, 0=no damage, read-out: Percentage damage caused to weed species, post-emergence, IPOHE
Summary of the method: as §2

Solanum nigrum (SOLNI) [11] = assay: as above; settings: 312 h, 1,000 g/ha, evaluated after 13 days, 100=total damage, 0=no damage, read-out: Percentage damage caused to weed species, post-emergence, SOLNI
Summary of the method: as §2

[12] = tested on: Amaranthus retroflexus (AMARE); assay: as above; settings: 312 h, 1,000 g/ha, evaluated after 13 days, 100=total damage, 0=no damage, read-out: Percentage damage caused to weed species, post-emergence, AMARE
Summary of the method: as §2

Compound	pest or weed control at 1000 g/ha (Setaria faberi (SETFA) [1])	pest or weed control at 1000 g/ha [2]	pest or weed control at 1000 g/ha [3]	pest or weed control at 1000 g/ha [4]	pest or weed control at 1000 g/ha (Solanum nigrum (SOLNI) [5])	pest or weed control at 1000 g/ha [6]	pest or weed control at 1000 g/ha (Setaria faberi (SETFA) [7])	pest or weed control at 1000 g/ha [8]	pest or weed control at 1000 g/ha [9]	pest or weed control at 1000 g/ha [10]	pest or weed control at 1000 g/ha (Solanum nigrum (SOLNI) [11])	pest or weed control at 1000 g/ha [12]
COC(=O)c1nc(C2CC2)cc(NCc2ccco2)c1Cl [Compound 26-83, 3-chloro-6-cyclopropyl-4-[(furan-2-ylmethyl)-amino]-pyridine-2-carboxylic acid methyl ester]	20%	40%	20%	100%	100%	100%	0%	0%	0%	100%	90%	100%
COC(=O)c1nc(-c2ccc(Cl)c(OC)c2F)cc(NCc2ccco2)c1Cl [Compound 26-164, 3-chloro-6-(4-chloro-2-fluoro-3-methoxy-phenyl)-4-[(furan-2-ylmethyl)-amino]-pyridine-2-carboxylic acid methyl ester]	90%	50%	90%	100%	100%	100%	90%	70%	70%	90%	100%	100%
C=Cc1c(NCc2ccco2)cc(-c2ccc(Cl)c(OC)c2F)nc1C(=O)OC [Compound 26-174, 6-(4-chloro-2-fluoro-3-methoxy-phenyl)-3-ethenyl-4-[(furan-2-ylmethyl)-amino]-pyridine-2-carboxylic acid methyl ester]	10%	20%	30%	90%	90%	80%	0%	10%	20%	50%	100%	100%
COC(=O)c1nc(-c2ccc(Cl)c(N(C)C)c2F)cc(NCc2ccco2)c1Cl [Compound 26-245, 3-Chloro-6-(4-chloro-3-dimethylamino-2-fluoro-phenyl)-4-[(furan-2-ylmethyl)-amino]-pyridine-2-carboxylic acid methyl ester]	30%	10%	30%	60%	60%	100%	60%	40%	50%	60%	90%	100%
C=Cc1c(NCc2ccco2)cc(-c2ccc(Cl)c(N(C)C)c2F)nc1C(=O)OC [Compound 26-255, 6-(4-Chloro-3-dimethyl-amino-2-fluoro-phenyl)-3-ethenyl-4-[(furan-2-ylmethyl)-amino]-pyridine-2-carboxylic acid methyl ester]	10%	10%	20%	10%	70%	30%	0%	0%	0%	10%	70%	20%
CCO/C=C\c1c(NCc2ccco2)cc(-c2ccc(Cl)c(OC)c2F)nc1C(=O)OC [Compound 26-463, (Z)-6-(4-chloro-2-fluoro-3-methoxy-phenyl)-3-(2-ethoxyethenyl)-4-[(furan-2-ylmethyl)-amino]-pyridine-2-carboxylic acid methyl ester]	10%	10%	10%	0%	10%	0%	0%	0%	0%	40%	60%	20%
COC(=O)c1nc(Cl)cc(NCc2ccccn2)c1Cl [Compound 31-2, 3,6-Dichloro-4-(pyridin-2-ylmethylamino)-pyridine-2-carboxylic acid methyl ester]	80%	70%	60%	100%	100%	100%	80%	50%	20%	80%	100%	100%
C=Cc1c(NCc2ncccc2Cl)cc(Cl)nc1C(=O)OC [Compound 32-12, 6-Chloro-4-[(3-chloro-pyridin-2-ylmethyl)-amino]-3-ethenyl-pyridine-2-carboxylic acid methyl ester]	80%	70%	50%	70%	100%	100%	60%	50%	40%	50%	90%	100%
COC(=O)c1nc(Cl)cc(NCc2ncccc2Cl)c1Br [Compound 32-17, 3-Bromo-6-chloro-4-[(3-chloro-pyridin-2-ylmethyl)-amino]-pyridine-2-carboxylic acid methyl ester]	0%	10%	0%	80%	80%	90%	50%	20%	20%	50%	90%	80%
